Reference: patent US20040106135A1, “Assay for PPAR ligand dependent gene modulation” (priority 2002, published 2004)
Where two headings read alike, the source gives them in different places.

Assays:
[1] = test system: PDK-4 mRNA in HK-2 cells (endogenous PPARα); assay: PDK-4 mRNA induction in HK-2 cells (real-time RT-PCR); format: cell-based, human; conditions: for EC50: 24 hours
Description: Values were normalized to 18S rRNA levels.
EC50 values were determined for PDK-4 mRNA induction by quantitative PCR under conditions used to generate the data shown in FIG. 2. EC50 values in the transactivation assays were determined by transfection of an expression plasmid encoding a GAL4-hPPARα chimera into cells co-expressing a luciferase reporter gene under the transcriptional control of GAL4 upstream activating elements.
Cell culture: The following cell lines were obtained from American Type Culture Collection (ATCC) and cultured in the recommended medium for each cell type: HepG2, HK-2, Caki-1, LNCaP (CloneFGC), SW872, and ACHN. PPARα compounds were prepared to a 500× stock in DMSO; corresponding control cells received an equal volume of vehicle (0.2% v/v).
Real-time PCR: Fluorescence-based real-time PCR was performed essentially as described (Abbaszade et al., (1999) J. Biol. Chem. 274:23443-23450). Primers and probes designed from the hamster pyruvate dehydrogenase kinase 4 (PDK4) sequence (Genbank Accession No. AF321218), human pyruvate dehydrogenase kinase 4 (PDK-4) sequence (Genbank Accession No. NM_002612) and human adipose differentiation-related protein (ADFP) sequence (Genbank Accession No. NM_001122) were synthesized and purified by Biosearch Technologies. Probes for ADFP and PDK-4 were modified at the 5′ end with the reporter dye 6-FAM, and at the 3′ end with the quencher dye Black Hole Quencher 1 (Biosearch Technologies). Probes detecting rat 18S rRNA were modified at the 5′ end with VIC and at the 3′ end with TAMRA (Biosearch Technologies). For detection of hamster PDK4, primers 5′-[…] (SEQ ID NO:2), 5′[…] (SEQ ID NO:3), and probe 5′-[…] (SEQ ID NO:4) were used. For detection of human PDK4, primers 5′-[…] (SEQ ID NO:5), 5′-[…] (SEQ ID NO:6), and probe 5′-[…] (SEQ ID NO:7) were used. For detection of human ADFP, primers 5′-[…] (SEQ ID NO:8), 5′-[…] (SEQ ID NO:9), and probe 5′-[…] (SEQ ID NO: 10) were used. For detection of 18s rRNA, primers 5′-[…] (SEQ ID NO:11), 5′-[…] (SEQ ID NO:12), and probe 5′-[…] (SEQ ID NO:13) were used. Template cDNA was generated using the Advantage RT-PCR kit according to the manufacturer's (Clontech) instructions using random hexamers and 1 μg of DNaseI-treated total RNA. Taqman-based real-time PCR expression profiling was performed using 25 ng of each cDNA according to the manufacturer's (PE Biosystems) instructions with fluorescence being monitored in real-time with an ABI Prism 7700 (PE Biosystems). Relative expression levels were determined essentially as described (Gibson et al., (1996) Genome Res. 6:995-1001) using standard curves for each transcript. Relative abundance was then determined from these standard curves, subtracting mRNA levels obtained from negative control reactions performed in the absence of reverse transcriptase, and normalized to 18S rRNA levels. All expression measurements were performed in duplicate in two independent assays, generating a total of four measurements per cDNA.

[2] = test system: HepG2 cells; assay: Transcriptional profiling by DNA microarray, HepG2 cells; format: cell-based, human; conditions: endogenous levels of PPARα
From the text: Threshold cutoffs were set at fold change >1.4; p<0.01; and statistically significant in at least 2 experiments. The genes fatty acid CoA ligase 2 (FACL2), palmitoyl acyl-CoA oxidase 1 (ACOX1), and carnitine palmitoyl acyl-CoA transferase (CPT1A) are included for comparison based on published reports that they are PPARα responsive genes in HepG2 cells over expressing PPARα (Hsu et al., (2001) J. Biol. Chem. 276:27950-8; Lawrence et al., (2001) J. Biol. Chem. 276:31521-7).
Expression profiling: Expression profiling of RNA samples was performed essentially as described (Lockhart et al., (1996) Nat. Biotechnol. 14:1675-80) using the Affymetrix human U95Av2 array. Briefly, RNA was isolated from 100 mm cell culture dishes, DNased, and 15 μg used as a template for double stranded cDNA synthesis according to standard protocols (Invitrogen). […] The resultant cRNA products were purified using RNeasy columns (Qiagen), pooled, and quantitated spectrophotometrically. […]
Data Analysis: Affymetrix CEL files from GeneChip 4.0 (Affymetrix) were imported into Resolver 2.0 under an empirically derived Affymetrix error model (Rosetta Inpharmatics). […] Accordingly, the statistical significance (P-value) of a given expression data point takes into account the underlying error associated with the Affymetrix transcript abundance measurements as determined by this platform-specific error model. […]

EC50 ([1]; RT-PCR, read-out: EC50 for activation of PDK-4 in HK-2 cells): ~0.01 µM
Compound: CCCCCCCN(CCc1ccc(SC(C)(C)C(=O)O)cc1)C(=O)Nc1ccc(F)cc1F [GW9578, ureido-thioisobutyric acid]
Time to near maximal increase of PDK-4 mRNA ([1]; HK-2 cells, 100 nM GW9578): ≤ 2 h
EC50 ([1]; PDK-4 mRNA induction by quantitative PCR, normalized to 18S rRNA, read-out: EC50 (μM) in HK-2 (PDK-4)): 0.01 µM
Response of PPARα responsive genes (FACL2, CPT1, ACOX1) in HepG2 cells [2]: No response
